Experimental findings from US9663486B2, “Selectively substituted quinoline compounds” (EISAI R&D MANAGEMENT CO., LTD., priority 2013, dated 2017) are described below.

The target in the experiment is T1, Human TLR9 (Homo sapiens, UniProt Q9NR96).
T1 sequence (Q9NR96 26-1032): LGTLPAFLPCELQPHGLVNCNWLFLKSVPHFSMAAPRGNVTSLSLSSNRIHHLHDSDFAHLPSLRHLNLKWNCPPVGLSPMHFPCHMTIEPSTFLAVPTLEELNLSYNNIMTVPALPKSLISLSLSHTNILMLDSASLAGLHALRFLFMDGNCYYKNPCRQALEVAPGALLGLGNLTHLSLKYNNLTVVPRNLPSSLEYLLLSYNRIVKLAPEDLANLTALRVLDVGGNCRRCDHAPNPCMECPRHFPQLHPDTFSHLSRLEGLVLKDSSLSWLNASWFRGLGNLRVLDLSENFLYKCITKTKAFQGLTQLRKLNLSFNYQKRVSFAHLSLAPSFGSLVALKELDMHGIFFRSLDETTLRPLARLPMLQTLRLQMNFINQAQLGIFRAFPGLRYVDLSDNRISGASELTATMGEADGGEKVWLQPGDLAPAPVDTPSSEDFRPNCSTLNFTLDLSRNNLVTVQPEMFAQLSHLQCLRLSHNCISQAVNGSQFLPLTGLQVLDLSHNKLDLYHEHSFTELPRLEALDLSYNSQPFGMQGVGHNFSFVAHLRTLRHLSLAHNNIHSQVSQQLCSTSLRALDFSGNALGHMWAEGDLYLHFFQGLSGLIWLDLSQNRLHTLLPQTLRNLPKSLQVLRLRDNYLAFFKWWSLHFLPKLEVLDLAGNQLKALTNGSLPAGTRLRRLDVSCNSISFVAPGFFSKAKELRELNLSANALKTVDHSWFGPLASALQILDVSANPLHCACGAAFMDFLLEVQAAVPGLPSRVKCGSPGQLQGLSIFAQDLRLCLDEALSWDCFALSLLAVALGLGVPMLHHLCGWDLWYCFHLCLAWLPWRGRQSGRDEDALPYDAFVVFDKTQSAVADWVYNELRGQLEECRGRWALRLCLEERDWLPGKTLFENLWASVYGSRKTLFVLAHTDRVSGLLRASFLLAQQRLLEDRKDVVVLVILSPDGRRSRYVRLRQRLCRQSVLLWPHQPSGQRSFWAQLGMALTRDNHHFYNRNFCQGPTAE
Put plainly: HEK-293 NFkB-luciferase reporter assay, CpG-ODN stimulation. The experiment is classed as cell-based. The arrangement: stably and individually express human TLR4, TLR7 or TLR9 full-length ORF cDNAs; expressed in transfected cells; host or cells: HEK-293 (ATCC) with ELAM-1 NF-kappaB luciferase reporter. Conditions: ligand CpG-ODN. An excerpt:
HEK-293 cells (ATCC) were engineered to stably express a NF-kappaB transcription factor inducible E-selectin (ELAM-1) luciferase reporter derived from the plasmid pGL3 (Promega) containing base pairs −2241 bp to −254 bp from the promoter of the human E-selectin gene (Accession No. NM_000450). These cells were then subsequently engineered to stably and individually express human TLR4, TLR7 or TLR9 full-length ORF cDNAs. Human TLR4 cDNA (Accession No. NM_138554) was cloned into pcDNA 3.0 expression vector (Invitrogen). TLR4 transfected cells were also engineered to express human MD-2 co-receptor [MD-2 cDNA (Accession No. NM_015364) was cloned into the pEF-BOS vector] and were supplemented with 10 nM soluble CD14 (R&D Systems) in the media to optimize LPS responsiveness. Human TLR9 cDNA (Accession No. NM_017442) was cloned into the pBluescript II KS vector (Agilent). Human TLR7 cDNA (Accession No. NM_016562) was obtained from OriGene. HEK-293 cells stably expressing human TLR8 (Accession No. NM_138636) or mouse TLR7 (Accession No. NM_133211) were purchased from InvivoGen and were then stably transfected with pNiFty2(NF-kappaB)-luciferase reporter plasmid (InvivoGen). Each cell type was plated in Dulbecco's modified Eagle's medium (DMEM) containing 10% fetal bovine serum (FBS) at a density of 2.22×10^5 cells/ml into a 384-well plate and incubated for 2 days at 37° C., 5% CO2. […]
Background: A reporter such as luciferase makes a cellular process visible.

As usually defined, the IC50 is the concentration that inhibits the measured activity by half. A high value points to a need for much substance.

Each structure is given as a SMILES string.

On to `C[C@H]1C[C@@H](N)CN(c2ccc(C#N)c3ncccc23)C1` [ER-888840, 5-((3R,5S)-3-amino-5-methylpiperidin-1-yl)quinoline-8-carbonitrile], for which the IC50 came out at 8.77 µM.
